Experiment [1] deals with PCP recognition sites (PCP receptor), rat whole brain membranes. Description: [^3 H]TCP Radioreceptor Assay (internal screen). The settings on record: for Ki / [^3 H]TCP (internal screen) Percent (%) inhibition @10 μM: [^3 H]TCP approx. 1 nM, room temperature 25 min; for Ki: mean of at least two separate determinations. In kind it is binding, Male Sprague-Dawley rats. The method, then:
[^3 H]TCP binding to PCP recognition sites was performed as described by Vignon et al. Brain Research 1983, 280, 194-197. Male Sprague-Dawley rats were sacrificed by decapitation, and whole brains were homogenized in 10 volumes (wt/vol) of cold Tris-HCl buffer (50 mM, pH 7.7) using a Brinkmann Polytron (setting 6, 30 sec). The homogenate was centrifuged at 40,000×g for 10 min at 4° C. The supernatant was decanted, and the homogenization and centrifugation steps were repeated twice as described above. Following this, the pellet was resuspended in Tris-HCl (5 mM, pH 7.7) at a tissue concentration of 0.5-0.75 g/ml, and one ml aliquots were frozen at -70° C. until use. The binding characteristics for PCP recognition sites were not altered by the freezing of membrane suspensions.
On the day of the assay, membrane aliquots were thawed, resuspended in fresh 5 mM Tris-HCl buffer at a tissue concentration of 1 mg/ml, and stored on ice until use. Each assay tube contained 100 μl of [^3 H]TCP at a final concentration of approximately 1 nM, 100 μl of various concentrations of the compounds of interest, 500 μl of the tissue suspension and 300 μl of buffer to a final assay volume of 1 ml and a final protein concentration of 0.5 mg/tube. Non-specific binding was defined by addition of […]. All tubes were incubated at room temperature for 25 min before termination of the reaction by rapid filtration over Whatman GF/B glass fiber filters that had been presoaked in a solution of 0.5% polyethylenimine for at least 1 hr prior to use. Filters were washed with three 4 ml volumes of cold Tris buffer. Following addition of scintillation cocktail, the amount of bound radioactivity was determined by liquid scintillation spectrometry using a Beckman LS 5000TA liquid scintillation counter with an efficiency for tritium of approximately 55%. Inhibition constants (Ki values) were calculated using the EBDA/LIGAND program (McPherson, J. Pharmacol. Meth. 1985, 14, 213-228), purchased from Elsevier/Biosoft, Inc. Results are reported as Ki values which are expressed as the mean of at least two separate determinations, or as a percent (%) inhibition of binding at 10 μM.

Experiment [2] deals with NMDA-induced neurotoxicity in cultured cortical neurons. The experiment can be described thus: Antagonism of NMDA-induced Neurotoxicity in Cultured Neurons. To be noted: 500 μM NMDA for 30 minutes, LDH activity after 24 hours. In kind it is cell-based, Swiss-Webster mice. The method, then: Pregnant, Swiss-Webster mice were obtained from Taconic Farms (Germantown, N.Y.) and sacrificed 16 days post conception. Fetuses were removed and placed in a sterile dish containing Hank's balanced salt solution (HBSS), pH 7.4. Brain cortices were dissected, meninges were removed, the tissue was minced and placed into a solution of HBSS containing 0.25% (w/v) trypsin at 37° C. for 15 minutes. Tissue was then triturated with a sterile pasteur pipet, diluted with minimal essential media (Gibco 330-1430), pH 7.4, supplemented with 10% horse serum, 10% fetal calf serum, 2 mM 1-glutamine, 21 mM d-glucose, 2.2 g/L sodium bicarbonate, 1000 U/ml penicillin, and 1,000 μg/ml streptomycin. Cells were plated onto Falcon primaria 96 well plates at a final density of 50,000 cells/well and incubated at 37° C. in the presence of 5% (v/v) carbon dioxide. After 5 days, plating media was replaced with maintenance media containing minimal essential media (Gibco 330-1430), pH 7.4, supplemented with 10% horse serum, […], 21 mM d-glucose, 2.2 g/1 sodium bicarbonate,1,000 U/ml penicillin, 1,000 μg/ml streptomycin, and 10 μM cytosine arabinoside. On days 7 and 10, media was replaced with maintenance media as above lacking the cytosine arabinoside. Experiments were conducted on day 13.
Day 13 cultured cortical neurons were washed twice with minimal essential media, pH 7.4 and then exposed for 30 minutes to 500 μM N-methyl-D-aspartic acid (NMDA) with or without varying concentrations of test agents. Dizocilpine (MK-801) at a final concentration of 10 μM MK-801 was routinely included as a positive control. MK-801 and test agents were prepared in minimal essential media supplemented with 21 mM d-glucose and 2.2 g/L sodium bicarbonate (MEM). After 30 minutes, media was replaced with MEM alone. Exposure of neurons to test agents was limited to the NMDA treatment period. Twenty-four hours after removal of NMDA, an aliquot of media from each well was removed for assessment of cell injury by determining lactate dehydrogenase (LDH) activity by the method of Wroblewski and LaDue Proc. Soc. […]

The test system of experiment [3] is PCP recognition sites (PCP receptor), whole rat forebrain membranes. Description: [^3 H]TCP Radioreceptor Assay (external screen). It is filed as binding. To be noted: 25° C. for 60 minutes. The method, then: Representative compounds of the invention were also tested in an external [^3 H]TCP radioreceptor assay using the following protocol:
A procedure similar to that described above for the [^3 H]TCP radioreceptor assay (internal screen) was utilized except that the whole rat forebrain membranes were incubated at 25° C. for 60 minutes rather than at room temperature for 25 minutes, before termination of the reaction. The results are reported as a percent (%) inhibition of binding at 10 μM.

The values that follow come from patent publication US5455248A, “Substituted 6,11-ethano-6,11-dihydrobenzo[b] quinolizinium salts, and compositions and method of use thereof” (Sterling Winthrop Inc., priority 1993, dated 1995).

One may read the Ki as the dissociation constant of the complex between target and ligand, obtained from inhibition or displacement. As to “12-isopropylidene-13,13-dimethyl-6,11-ethano-6,11-dihydrobenzo[b]quinolizinium perchlorate (Formula I: R^1 =H; R^2 =R^3 =CH3 ; R^4 and R^5 together =isopropylidene; X^- =ClO4^-) and 12,12-dimethyl-13-isopropylidene-6,11-ethano-6,11-dihydrobenzo[b]quinolizinium perchlorate [Example 16]”, the Ki in experiment [1] came out at 265 nM.

A word on the IC50: it is the concentration that inhibits the measured activity by half. Read a high IC50 as weaker potency. In turn, `C=C(C)C1(C)CC2c3ccccc3C1c1cccc[n+]12` (single isomer, unassigned) [Example 2, 6,11-ethano-12-isopropenyl-12-methyl-6,11-dihydrobenzo[b]quinolizinium bromide] yielded a Ki in experiment [1] of 208 nM. In addition, in experiment [2] (Mus musculus, Cortical neurone), inhibition was half-maximal at 7300 nM (IC50).

`C=C(C)C1(COC)CC2c3ccccc3C1c1cccc[n+]12.[O-][Cl+3]([O-])([O-])[O-]` (single isomer, unassigned) [Example 4, 6,11-ethano-12-isopropenyl-12-methoxymethyl-6,11-dihydrobenzo[b]quinolizinium perchlorate] registered a Ki in experiment [1] of 313 nM.

For the compound `CC(C)(C)C1C2c3ccccc3C(C1C(C)(C)C)[n+]1ccccc12.F[P-](F)(F)(F)(F)F` (single isomer, unassigned) [Example 6, 6,11-ethano-12-tert-butyl13-tert-butyl-6,11-dihydrobenzo[b]quinolizinium hexafluorophosphate], the “[^3 H]TCP (internal screen) Percent (%) inhibition @10 μM” value in experiment [1] was determined as 44%.

With `CC(C)(C)C1C2c3ccccc3C(C1C(C)(C)C)[n+]1ccccc12` (single isomer, unassigned) [Example 7, 6,11-ethano-12-tert-butyl-13-tert-butyl-6,11-dihydrobenzo[b]quinolizinium hexafluorophosphate], the Ki in experiment [1] came out at 5090 nM.

Regarding `C=CC1CC2c3ccccc3C1c1cccc[n+]12` (single isomer, unassigned) [Example 13(a), 6,11-ethano-12-ethylene-6,11-dihydrobenzo[b]quinolizinium bromide], the “[^3 H]TCP (internal screen) Percent (%) inhibition @10 μM” value in experiment [1] is on record as 49%.

Take `c1ccc2c(c1)C1CC3(CCC3)C2c2cccc[n+]21` (stereo not shown) [10(b), 6,11-ethano-12,12-(1'-spirocyclobutane)-6,11-dihydrobenzo[b]-quinoliziniumchloride]: the Ki in experiment [1] was determined as 3110 nM.

`OCC1(CO)CC2c3ccccc3C1c1cccc[n+]12` (stereo not shown) [11(b), 6,11-ethano-12,12-dihydroxymethyl-6,11-dihydrobenzo[b]quinolizinium chloride] came in with a Ki in experiment [1] of 1950 nM.

`c1ccc2c(c1)C1CC3(C4CC5CC(C4)CC3C5)C2c2cccc[n+]21` (stereo not shown) [15(b), 6,11-ethano-12,12-(2'-spiro-adamantane)-6,11-dihydrobenzo[b]quinolizinium chloride] yielded a Ki in experiment [1] of 5280 nM.

`CCOCC1(COCC)CC2c3ccccc3C1c1cccc[n+]12` (stereo not shown) [17(b), 12,12-diethoxymethyl-6,11-ethano-6,11-dihydrobenzo[b]quinolizinium chloride] showed a Ki in experiment [1] of 353 nM.

`C#CC1(C#C)CC2c3ccccc3C1c1cccc[n+]12` (stereo not shown) [18(b), 12,12-diethynyl-6,11-ethano-6,11-dihydrobenzo[b]quinolizinium hexafluorophosphate]: the Ki in experiment [1] came out at 883 nM.

Compound `CC1(C)C2c3ccccc3C([n+]3ccccc32)C1(C)C.[O-][Cl+3]([O-])([O-])[O-]` (stereo not shown) [Example 1, 6,11-ethano-12, 12, 13,13-tetramethyl-6,11-dihydrobenzo[b]quinolizinium perchlorate] displayed an inhibition constant Ki in experiment [1] of 21.2 nM.

In experiment [1], `C=C(C)C1(C)CC2c3ccccc3C1c1cccc[n+]12` (stereo not shown) [Example 3, 6,11-ethano-12-isopropenyl-12-methyl-6,11-dihydrobenzo[b]quinolizinium bromide] yielded a Ki of 191 nM. For the same compound, the IC50 in experiment [2] was 5880 nM.

For `C=C(C)C1(C)CC2c3ccccc3C1c1cccc[n+]12` (stereo not shown) [Example 5, 6,11-ethano-12-isopropenyl-12-methyl-6,11dihydrobenzo[b]quinolizinium chloride], the affinity in experiment [1], expressed as Ki, was 65.2 nM. In experiment [2], this compound yielded an IC50 of 2810 nM.

In turn, `[O-][Cl+3]([O-])([O-])[O-].c1ccc2c(c1)C1CC(C3CC3)(C3CC3)C2c2cccc[n+]21` (stereo not shown) [Example 8, 6,11-ethano-12,12-dicyclopropyl-6,11-dihydrobenzo[b]-quinolizinium perchlorate] registered a Ki in experiment [1] of 88.1 nM.

`c1ccc2c(c1)C1CC(C3CC3)(C3CC3)C2c2cccc[n+]21` (stereo not shown) [Example 9, 6.11-ethano-12,12-dicyclopropyl-6,11-dihydrobenzo[b]quinolizinium chloride] returned a Ki in experiment [1] of 103 nM.

`C=C(C)C1(C)CC2(C)c3ccccc3C1c1cccc[n+]12.[O-][Cl+3]([O-])([O-])[O-]` (stereo not shown) [Example 12, 6,11-ethano-6-methyl-12-isopropenyl-12-methyl-6,11-dihydrobenzo[b]quinolizinium perchlorate] displayed an inhibitory constant (Ki) in experiment [1] of 69 nM.

In the case of `CC(C)=CC1C2c3ccccc3C([n+]3ccccc32)C1(C)C` (stereo not shown) [Example 14, 6,11-ethano-12-(2,2-dimethyl)ethylene-13,13-dimethyl-6,11-dihydrobenzo[b]quinolizinium hexafluorophosphate], the affinity in experiment [1] corresponds to a Ki of 3540 nM.

Compound `CC(C)C1(C(C)C)CC2c3ccccc3C1c1cccc[n+]12` (stereo not shown) [Example 19, 12,12-diisopropyl-6,11-dihydrobenzo[b]quinolizium hexafluorophosphate] showed a Ki in experiment [1] of 6010 nM.

Regarding `C=C(C)C1(C)CC2c3ccccc3C1c1cccc[n+]12.[O-][Cl+3]([O-])([O-])[O-]` (stereo not shown) [Example 20, 6,11-ethano-12-isopropenyl-12-methyl-6,11-dihydrobenzo[b]quinolizinium perchlorate], in experiment [1], the “binding to the PCP receptor (in words)” value is “found to bind to the PCP receptor” and affinity was put at a Ki of 45.7 nM. In addition, the “[^3 H]TCP (external screen) Percent inhibition (%) @10 μM” value in experiment [3] worked out at 94%.
